“Also recorded” adds a separate entry of the source.
What was measured:
[1] = system: patients with idiopathic pulmonary fibrosis (IPF); assay: Phase 2a trial in IPF: FVC, QLF, biomarkers; type: in vivo, human; conditions: for proportion of patients with ≥10% decline in FVCpp: 12 weeks
Source text: The exploratory endpoints of the trial measured changes in forced vital capacity (FVC), HRCT-based Quantitative Lung Fibrosis score (QLF), and selected biomarkers over 3 months of treatment.

[2] = system: bleomycin-treated mice (C57BL/6); assay: Murine bleomycin model: collagen deposition; type: in vivo, mouse
Experimental: (§1) Mice (C57BL/6) were divided into healthy (n=15), vehicle-treated (n=15), and test article-treated (n=15 per dose) groups. Mice in the vehicle and test article-treated groups were administered 3 U/kg of bleomycin (Teva Pharmaceuticals; North Wales, PA) via oropharyngeal aspiration while under anesthesia on day 0. Healthy animals were administered water in a similar fashion. Starting on day 7, mice in the control group were administered PBS vehicle, 130 uL, by oral gavage, BID for 14 days. Also starting on day 7, mice in the test group were administered compound 5 in PBS by oral gavage, BID for 14 days, at relative dosages of 1x, 2.5x and 5x. […] From day 14 through day 21, 9 of the 15 mice were administered ^2H2O for labeling. All mice were sacrificed on day 21 and tissues were collected. Samples were prepared for analysis either directly from lung tissue, or by bronchoalveolar lavage, which washes out the bronchiolar and alveolar space with saline to produce a bronchoalveolar lavage fluid (BALF) in which 80-90% of cells are alveolar macrophages.
FIG. 4C is a graph showing that compared to the healthy mice, lung tissue in the vehicle-treated mice experienced a substantial increase in SMAD3 phosphorylation, which is a measure of TGF-β signaling-related kinase activity. […] FIG. 4D is a graph showing that compared to the healthy mice, lung tissue in the vehicle-treated mice experienced a substantial accumulation of new collagen as evidenced by the percentage of lung collagen containing ^2H-labeled hydroxyproline.
FIGS. 4F, 4G, and 4H show high resolution second harmonic generation images of fibrillar collagen (collagen type I and III) taken from formalin-fixed paraffin embedded lung tissue sections from a healthy mouse lung (4F), a vehicle-treated mouse lung (4G) and a test-article treated mouse lung (4H; 500 mg/kg BID). Color scale is indicative of collagen fiber density (red = most dense; blue = least dense).
FIG. 4I is a graph showing the percent total collagen area in the second harmonic generation mouse lung images. […]

[3] = system: pSmad2/Smad2; assay: Alveolar pSmad2/Smad2 in BAL, prior study (80 mg and 160 mg QD); type: in vivo; conditions: p<0.0001
Source text: FIG. 12 through FIG. 36 illustrate various results from the clinical trial. […] BAL - bronchoalveolar lavage; pSmad2/Smad2 - ratio of phosphorylated Smad2 to total Smad2; QD - once daily.

[4] = Unbound plasma concentration in the PET/CT study; type: in vivo; conditions: human
Experimental: This Example was conducted as an open-label, single-dose (60 mg, 120 mg, 240 mg or 320 mg) clinical trial evaluating αvβ6 receptor occupancy in the lungs, safety, and pharmacokinetics of Compound #5 in subjects with IPF. To date, 4 participants have completed the study. Each of these 4 participants was undergoing a pre-existing course of therapy using one of the SoC (Standard of Care) compounds, nintedanib. These participants continued their pre-existing nintedanib therapy throughout this study. Knottin tracer uptake kinetics were compared pre- and post-dose of the disclosed compound, as measured by standardized uptake values (SUVs) and parameters estimated from kinetic modeling in regions-of-interest on dynamic [^18F]FP-R01-MG-F2 PET/CT scans. […] Receptor occupancy was estimated from the output of the two-compartment model (VT, the […]) using standard equations and fitting algorithms, and corrections for VND (non-displaceable tracer binding). For example, in FIG. 10, the data points, shown as circles, are modeled by the following formula: […]
FIG. 9 is a graph of unbound plasma concentration (X-axis) vs Vt (Y-axis) for the baseline Vt at each dose, the measured Vt after each dose, and a fit line. FIG. 10 is a graph of unbound plasma concentration (X-axis) vs % receptor occupancy (Y-axis). FIG. 11 is a bar chart showing % target engagement for each subject and dose.

[5] = system: SMAD3 phosphorylation; assay: Murine bleomycin model: SMAD3 phosphorylation; type: in vivo, mouse; conditions: bleomycin mice
Experimental: as §1
FIG. 4C is a graph showing that compared to the healthy mice, lung tissue in the vehicle-treated mice experienced a substantial increase in SMAD3 phosphorylation, which is a measure of TGF-β signaling-related kinase activity. […]

[6] = SAD and MAD first-in-human studies, plasma LC-MS/MS; type: in vivo; conditions: healthy subjects
Experimental: Healthy human subjects (N=85) were selected for single ascending dose (SAD) and multiple ascending dose (MAD) first-in-human studies. A solution for oral administration was prepared, containing 10 mg/mL of compound 5 in a 50:50 mixture of ORA-SWEET® SF (PERRIGO®, Allegan, Michigan) and sterile water for irrigation. Sufficient solution was administered orally to the subjects to provide between 15 mg/dose and 75 mg/dose of compound 5 in the SAD study and between 10 mg/dose and 40 mg/dose of compound 5 in the MAD study. Concentrations of compound 5 were measured in the subjects by obtaining a sample of plasma from each subject at desired intervals, and subjecting the plasma to liquid chromatography-mass spectrometry-mass spectrometry (LC-MS/MS), with quantification using a calibration curve determined from a range of solutions at standardized concentrations. The lower limit of quantitation (LLOQ) of the assay was 1 ng/mL and the calibration curve range was 1 to 500 ng/mL.

SMILES: COCCN(CCCCc1ccc2c(n1)NCCC2)CC[C@H](Nc1ncnc2ccccc12)C(=O)O [Compound 5, (S)-4-((2-methoxyethyl)(4-(5,6,7,8-tetrahydro-1,8-naphthyridin-2-yl)butyl)amino)-2-(quinazolin-4-ylamino)butanoic acid]
- LS Mean change from baseline in FVC at week 12, not on SoC subgroup ([1]; 40 mg (N=5)): -43.1 mL
- Mean Percent Change in QLF extent from baseline to Week 12 ([1]; 40 mg (N=15)): 3.15%
- LS Mean change from baseline in FVC at week 12, on SoC subgroup ([1]; 40 mg (N=17)): -58.3 mL
- change in FVC from baseline to Week 12 ([1]; 40 mg dose group): -46.1 mL
- reduction in FVC decline relative to placebo ([1]; 40 mg dose group): 38%
- proportion of patients with ≥10% decline in FVCpp ([1]; 40 mg group): 18.2%
- LS Mean change from baseline in FVC at week 12, not on SoC subgroup ([1]; 80 mg (N=4)): +138.1 mL
- Mean Percent Change in QLF extent from baseline to Week 12 ([1]; 80 mg (N=18)): 0.70%
- LS Mean change from baseline in FVC at week 12, on SoC subgroup ([1]; 80 mg (N=19)): -11.9 mL
- change in FVC from baseline to Week 12 ([1]; 80 mg dose group): +24.6 mL
- proportion of patients with > 2% increase in QLF at 12 weeks ([1]; 80 mg group): 11%
- proportion of patients with ≥10% decline in FVCpp ([1]; 80 mg group): 8.7%
- Mean Percent Change in QLF extent from baseline to Week 12 ([1]; 160 mg (N=14)): 0.00%
- LS Mean change from baseline in FVC at week 12, not on SoC subgroup ([1]; 160 mg (n=3)): +25.8 mL
- LS Mean change from baseline in FVC at week 12, on SoC subgroup ([1]; 160 mg (n=19)): -47.5 mL
- change in FVC from baseline to Week 12 ([1]; 160 mg dose group): -25.1 mL
- reduction in FVC decline relative to placebo ([1]; 160 mg dose group): 66%
- proportion of patients with a decrease in QLF (>2% change) at 12 weeks ([1]; 160 mg group): 26.7%
- proportion of patients with stable QLF (-2 to 2% change) at 12 weeks ([1]; 160 mg group): 46.6%
- proportion of patients with ≥10% decline in FVCpp ([1]; 160 mg group): 4.5%
- serum PRO-C3 (type III collagen synthesis) change from baseline vs placebo ([1]; not significant): decreased; also recorded: reduced
- serum PRO-C6 (type VI collagen synthesis) change from baseline vs placebo ([1]; not significant): decreased; also recorded: reduced
- change in FVC from baseline to Week 12 ([1]; pooled Compound 5 groups): -15.1 mL
- accumulated new collagen (% of lung collagen containing 2H-labeled hydroxyproline) ([2]; 1x and 5x dose PO BID 14 days): dose-dependent reduction
- percent total collagen area in second harmonic generation lung images ([2]; 1x, 2.5x, 5x dose): substantial, statistically significant dose-dependent reduction
- total pulmonary collagen (µg of hydroxyproline) ([2]; 1x, 2.5x, 5x dose PO BID 14 days): reduction in total pulmonary collagen
- percent change of alveolar pSmad2/Smad2 from baseline at 24 hours vs placebo [3]: statistically significant
- concentration at 4 h ([4]; 60 mg, Subject A00, 60 mg single dose): 3.66 nM
- concentration at 4 h ([4]; 120 mg, Subject B120, 120 mg): 10 nM
- concentration at 4 h ([4]; 240 mg, Subject B240, 240 mg): 58.3 nM
- concentration at 4 h ([4]; 240 mg, Subject C240, 240 mg): 103 nM
- concentration at 4 h ([4]; 320 mg, Subject D320, 320 mg): 33.6 nM
- concentration at 4 h ([4]; Subject C320, 320 mg): 96.5 nM
- pSMAD3 levels in the lung, % of the untreated levels [5]: approximately 50%
- SMAD3 phosphorylation in lung tissue vs vehicle ([5]; 1x, 2.5x, 5x dose PO BID 14 days from day 7): substantial, statistically significant dose-dependent reductions
- oral bioavailability and pharmacokinetics [6]: good oral bioavailability and pharmacokinetics

From patent publication US20230293519A1, “INTEGRIN INHIBITORS AND USES THEREOF IN COMBINATION WITH OTHER AGENTS” (Pliant Therapeutics, Inc., priority 2021, published 2023)
